Here are results for two substances from ChEMBL document CHEMBL5154808, “Novel β-Hairpin Antimicrobial Peptides Containing the β-Turn Sequence of -RRRF- Having High Cell Selectivity and Low Incidence of Drug Resistance” (J Med Chem, 2022).

Activity calls are given as the source filed them. No cut-off for these calls is given here.

Assay [1] concerns Staphylococcus aureus. Nature of the assay: Antimicrobial activity against Staphylococcus aureus ATCC 25923 assessed as reduction in bacterial growth incubated for 18 hrs in presence of 1 mM MgCl2 by CLSI protocol based broth microdilution method (reference value: 8 uM). The assay is classed as functional.
Assay [2] has as its system Escherichia coli. The assay can be described thus: Antimicrobial activity against Escherichia coli ATCC 25922 assessed as reduction in bacterial growth incubated for 18 hrs in presence of 4 uM FeCl3 by CLSI protocol based broth microdilution method (reference value: 8 uM). It is filed as functional.
The test system of assay [3] is Escherichia coli. The assay can be described thus: Antimicrobial activity against Escherichia coli ATCC 25922 assessed as reduction in bacterial growth incubated for 18 hrs in presence of 150 mM NaCl by CLSI protocol based broth microdilution method (reference value: 8 uM). The assay is classed as functional.
Assay [4] concerns Escherichia coli. The assay can be described thus: Synergistic antibacterial activity against Escherichia coli ATCC 25922 assessed as fractional inhibitory concentration index incubated for 18 hrs in presence of kanamycin by checker board assay. It is filed as functional.
In assay [5] the test system is Staphylococcus aureus. The assay can be described thus: Antimicrobial activity against Staphylococcus aureus ATCC 25923 assessed as reduction in bacterial growth incubated for 18 hrs in presence of 4.5 mM KCl by CLSI protocol based broth microdilution method (reference value: 8 uM). The assay is classed as functional.
For assay [6], the system named is Escherichia coli. The assay can be described thus: Antimicrobial activity against Escherichia coli ATCC 25922 assessed as reduction in bacterial growth incubated for 18 hrs in presence of 4.5 mM KCl by CLSI protocol based broth microdilution method (reference value: 8 uM). It is filed as functional.
Assay [7] concerns Staphylococcus aureus. Nature of the assay: Antimicrobial activity against Staphylococcus aureus ATCC 25923 assessed as reduction of bacterial growth at 2 times MIC incubated for 18 hrs in presence of trypsin by CLSI protocol based broth microdilution method. It is filed as functional, organism-based.
In assay [8] the test system is Staphylococcus aureus. Nature of the assay: Antimicrobial activity against Staphylococcus aureus ATCC 25923 assessed as reduction in bacterial growth incubated for 18 hrs in presence of 10% serum by CLSI protocol based broth microdilution method (reference value: 4 uM). The assay is classed as functional.
Assay [9] concerns Staphylococcus aureus. Nature of the assay: Synergistic antibacterial activity against polymyxin B-resistant Staphylococcus aureus ATCC 25923 assessed as fractional inhibitory concentration index incubated for 18 hrs in presence of polymyxin B by checker board assay. The assay is classed as functional.
Assay [10] deals with Staphylococcus aureus. Nature of the assay: Antimicrobial activity against Staphylococcus aureus ATCC 25923 assessed as reduction in bacterial growth incubated for 18 hrs in presence of 1 mM MgCl2 by CLSI protocol based broth microdilution method (reference value: 4 uM). It is filed as functional.

With H-KWKWKRRRFKWKWK-NH2, the MIC in the assay with Staphylococcus aureus [1], in the assay on Escherichia coli [2], in the assay on Escherichia coli [3], with Staphylococcus aureus [5] and with Escherichia coli [6] was 8 µM in each case. In the assay on Escherichia coli [4], the “fractional inhibitory concentration index (FICI)” value is listed as 0.3125. In the assay with Staphylococcus aureus [7], the outcome was Active.
In the case of H-RIRIRRRRFRIRIR-NH2, the MIC in the assay with Staphylococcus aureus [8] and in the assay on Staphylococcus aureus [10] was 8 µM in each case. For the same substance, the “fractional inhibitory concentration index (FICI)” value in the assay on Staphylococcus aureus [9] stood at 0.3125.
